In one assay the target is CDK2 (Homo sapiens (Human), UniProt P24941). The assay is described as follows: CDK2 Inhibition Assay. It counts as biochemical. On the procedure: CDK2 Inhibition Assay. […] The same volume of DMSO was adopted as high control. 20 nL of the test compound solution in DMSO were dispensed into a new 384-well assay plate by Echo 550. […] Kinase assay buffer supplemented with substrate peptides was employed as low control to monitor the background. 400 µM ATP was prepared in kinase assay buffer containing and 5 μL of ATP solution was added to each well to start the reaction. The assay plate was incubated at 25° C. for 90 minutes and the reaction was stopped by adding 40 μL of 0.5 M EDTA.
Phosphorylated fluorescent-tagged peptides were differentiated from non-phosphorylated peptides by separating using Caliper EZ Reader II and the detection was directly converted to conversion ratio.

A further assay has as its target CDK6 (Homo sapiens (Human), UniProt Q00534). The assay is described as follows: CDK6 Inhibition Assay. It counts as biochemical. On the procedure: CDK6 Inhibition Assay. […] The same volume of DMSO was adopted as high control (HC). 20 nL compound solution in DMSO (diluted) were dispensed into a new 384-well assay plate by Echo 550. […] Kinase assay buffer supplemented with substrate peptides was employed as low control (LC) to monitor the background. 400 µM ATP was prepared in kinase assay buffer containing and 15 μL of ATP solution was added to each well to start the reaction. The assay plate was incubated at 25° C. for 90 minutes and the reaction was stopped by adding 40 μL of 0.5 M EDTA.

A further assay concerns the target CDK5 (Homo sapiens (Human), UniProt Q00535). The assay is described as follows: CDK5 Inhibition Assay. Type of assay: biochemical. On the procedure:
CDK5 Inhibition Assay. […] The same volume of DMSO was adopted as high control. 20 nL of the test compound solution in DMSO were dispensed into a new 384-well assay plate by Echo 550. […] Kinase assay buffer supplemented with substrate peptides was employed as low control to monitor the background. 40 µM ATP was prepared in kinase assay buffer containing and 5 μL of ATP solution was added to each well to start the reaction. The assay plate was incubated at 25° C. for 90 minutes and the reaction was stopped by adding 40 μL of 0.5 M EDTA.

In another assay the target is CDK4 (Homo sapiens (Human), UniProt P11802). The assay is described as follows: CDK4 Inhibition Assay. Type of assay: biochemical. As to the method:
CDK4 Inhibition Assay. […] The same volume of DMSO was adopted as high control (HC). 20 nL of compound solution in DMSO (diluted) were dispensed into anew 384-well assay plate by Echo 550. […] Kinase assay buffer supplemented with substrate peptides was employed as low control (LC) to monitor the background. 400 µM ATP was prepared in kinase assay buffer containing and 15 μL of ATP solution was added to each well to start the reaction. The assay plate was incubated at 25° C. for 90 minutes and the reaction was stopped by adding 40 μL of 0.5 M EDTA.
Phosphorylated fluorescent-tagged peptides were differentiated from non-phosphorylated peptides by separating using Caliper EZ Reader II and the detection was directly converted to conversion ratio (ratio of phosphorylated to non-phosphorylated peptide).
For estimation of IC50, the % substrate conversion values are transformed to % relative activity by applying the following equation: […]

In the next assay the test system is HSPCs. The conditions noted are these: CDK4/6 dependent subsets of healthy cells such as HSPCs; cited from earlier work.

Where “and” joins values, the source holds several entries; their conditions need not be identical. Equal entries are not always repeated. Where two headings read alike, the source gives them in different places.

CDK4, sequence (P11802 whole entry): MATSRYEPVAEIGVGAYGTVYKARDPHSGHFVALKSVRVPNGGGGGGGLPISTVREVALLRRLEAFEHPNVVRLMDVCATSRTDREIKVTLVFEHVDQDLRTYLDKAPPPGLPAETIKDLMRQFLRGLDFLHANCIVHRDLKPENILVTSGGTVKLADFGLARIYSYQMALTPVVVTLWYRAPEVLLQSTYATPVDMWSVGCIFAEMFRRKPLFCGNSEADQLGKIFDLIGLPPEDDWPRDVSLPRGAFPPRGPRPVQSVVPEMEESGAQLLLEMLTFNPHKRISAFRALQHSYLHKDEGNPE
CDK4, sequence (P30281 whole entry partner): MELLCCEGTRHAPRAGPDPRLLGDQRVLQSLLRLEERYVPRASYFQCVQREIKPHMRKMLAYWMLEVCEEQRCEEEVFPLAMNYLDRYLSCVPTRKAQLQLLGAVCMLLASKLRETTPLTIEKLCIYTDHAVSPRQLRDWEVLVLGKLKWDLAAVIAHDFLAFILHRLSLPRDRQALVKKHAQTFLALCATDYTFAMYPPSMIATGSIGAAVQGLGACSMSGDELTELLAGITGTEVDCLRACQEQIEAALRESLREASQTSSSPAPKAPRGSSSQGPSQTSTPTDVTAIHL
CDK5, sequence (Q00535 whole entry): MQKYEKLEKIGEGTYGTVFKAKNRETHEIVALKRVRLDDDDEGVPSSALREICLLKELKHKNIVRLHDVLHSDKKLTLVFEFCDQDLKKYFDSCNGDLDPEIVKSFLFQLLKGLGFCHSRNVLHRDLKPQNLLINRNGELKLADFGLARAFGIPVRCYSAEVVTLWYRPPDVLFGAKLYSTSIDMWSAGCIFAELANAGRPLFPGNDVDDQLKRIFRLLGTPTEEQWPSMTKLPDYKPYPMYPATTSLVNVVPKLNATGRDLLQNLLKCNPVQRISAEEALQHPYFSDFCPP
CDK5, sequence (Q15078 99-307 partner): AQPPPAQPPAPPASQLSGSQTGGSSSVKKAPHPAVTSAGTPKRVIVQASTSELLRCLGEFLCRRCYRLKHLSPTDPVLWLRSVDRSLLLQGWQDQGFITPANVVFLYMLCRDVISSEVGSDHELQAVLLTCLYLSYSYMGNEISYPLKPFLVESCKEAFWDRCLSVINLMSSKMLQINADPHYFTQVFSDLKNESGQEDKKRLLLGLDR
CDK6, sequence (Q00534 whole entry): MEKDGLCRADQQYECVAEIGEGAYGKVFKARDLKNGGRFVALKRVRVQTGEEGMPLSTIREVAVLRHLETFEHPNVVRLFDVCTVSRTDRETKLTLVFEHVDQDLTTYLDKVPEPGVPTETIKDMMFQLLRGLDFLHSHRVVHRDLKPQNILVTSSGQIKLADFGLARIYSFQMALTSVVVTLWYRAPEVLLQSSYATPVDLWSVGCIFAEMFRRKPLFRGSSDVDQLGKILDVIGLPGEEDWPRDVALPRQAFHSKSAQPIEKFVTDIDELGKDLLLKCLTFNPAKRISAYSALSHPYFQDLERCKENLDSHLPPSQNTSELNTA
CDK6, sequence (P30281 whole entry partner): as the sequence (P30281 whole entry partner) above

For `CN1CCC(OCc2ccc(Nc3ncc(F)c(-c4cc(F)c5nc6n(c5c4)C(C)(C)CC6)n3)nc2)CC1` [Example 13, 5-fluoro-4-(5-fluoro-1,1-dimethyl-2,3-dihydro-1H-benzo[d]pyrrolo[1,2-a]imidazol-7-yl)-N-(5-((1-methylpiperidin-4-yloxy)methyl)pyridin-2-yl)pyrimidin-2-amine], the IC50 – broadly, the concentration needed to halve the response being measured – at CDK2 (read-out: CDK2 IC50) is 174 nM; against CDK6, 3.92 nM; at CDK5, 433 nM; against CDK4 it was 0.25 nM.
For the compound `CCN1CCN(c2ccc(Nc3ncc(F)c(-c4cc(F)c5nc6n(c5c4)C(C)(C)CC6)n3)nc2)CC1` [Example 15, N-(5-(4-ethylpiperazin-1-yl)pyridin-2-yl)-5-fluoro-4-(5-fluoro-1,1-dimethyl-2,3-dihydro-1H-benzo[d]pyrrolo[1,2-a]imidazol-7-yl)pyrimidin-2-amine, reference compound], the 50% inhibitory concentration (IC50) was 117 nM and 21.6 nM at CDK2 (read-out: CDK2 IC50); 0.88 nM against CDK6; 46.8 nM on CDK5; 0.07 nM against CDK4.
Regarding `CCN1CCN(Cc2ccc(Nc3ncc(F)c(-c4cc(F)c5nn6c(c5c4)CCC6)n3)nc2)CC1` [Example 16, N-(5-((4-ethylpiperazin-1-yl)methyl)pyridin-2-yl)-5-fluoro-4-(6-fluoro-2,3-dihydro-1H-pyrrolo[1,2-b]indazol-8-yl)pyrimidin-2-amine], the half-inhibitory concentration (IC50) at CDK2 (read-out: CDK2 IC50) was above 10000 nM; against CDK6, 93.7 nM; at CDK5, above 10000 nM; against CDK4 it was 9.46 nM.
As to `CN1CCC(COc2ccc(Nc3ncc(F)c(-c4cc(F)c5nc6n(c5c4)C(C)(C)CC6)n3)nc2)CC1` [Example 12, 5-fluoro-4-(5-fluoro-1,1-dimethyl-2,3-dihydro-1H-benzo[d]pyrrolo[1,2-a]imidazol-7-yl)-N-(5-((1-methylpiperidin-4-yl)methoxy)pyridin-2-yl)pyrimidin-2-amine], the IC50 stood at 55.2 nM at CDK2 (read-out: CDK2 IC50), 1.89 nM against CDK6, 159 nM against CDK5 and 0.11 nM against CDK4.
In the case of `CC1(C)CCc2nc3c(F)cc(-c4nc(Nc5ccc(OCC6CCN(CCCO)CC6)cn5)ncc4F)cc3n21` [Example 11, 3-(4-((6-(5-fluoro-4-(5-fluoro-1,1-dimethyl-2,3-dihydro-1H-benzo[d]pyrrolo[1,2-a]imidazol-7-yl)pyrimidin-2-ylamino)pyridin-3-yloxy)methyl)piperidin-1-yl)propan-1-ol], the concentration for half-maximal inhibition (IC50) worked out at 44.9 nM on CDK2 (read-out: CDK2 IC50), 1.02 nM on CDK6, 128 nM against CDK5 and 0.11 nM on CDK4.
In the case of `CN1CCN(c2ccc(Nc3ncc4cc5n(c4n3)C3(CCCCC3)CNC5=O)nc2)CC1` [Example G1T28], the cell cycle arrest result in the assay with HSPCs is reported as “transient cell cycle arrest”.
With `CC(=O)c1c(C)c2cnc(Nc3ccc(N4CCNCC4)cn3)nc2n(C2CCCC2)c1=O` [PD-0332991], the cell cycle arrest entry with HSPCs is listed as “transient cell cycle arrest”.
On to `CC1(C)CCc2nc3c(F)cc(-c4nc(Nc5ccc6c(n5)CCN(C(=O)CO)C6)ncc4F)cc3n21` [Example 5, 1-(2-(5-fluoro-4-(5-fluoro-1,1-dimethyl-2,3-dihydro-1H-benzo[d]pyrrolo[1,2-a]imidazol-7-yl)pyrimidin-2-ylamino)-7,8-dihydro-1,6-naphthyridin-6 (5H)-yl)-2-hydroxyethanone, reference compound], for which the IC50 was determined as 17.6 nM at CDK2 (read-out: CDK2 IC50), 1.87 nM against CDK6, 36.8 nM at CDK5 and 0.12 nM at CDK4.
Consider `CCN1CCC(COc2ccc(Nc3cc(-c4cc(F)c5nc6n(c5c4)C(C)(C)CC6)c(F)cn3)nc2)CC1` [Example 9, N-(5-((1-ethylpiperidin-4-yl)methoxy)pyridin-2-yl)-5-fluoro-4-(5-fluoro-1,1-dimethyl-2,3-dihydro-1H-benzo[d]pyrrolo[1,2-a]imidazol-7-yl)pyridin-2-amine], for which the 50% inhibitory concentration (IC50) on CDK2 was determined as 14.7 nM; on CDK2 (read-out: CDK2 IC50), 24.7 nM; against CDK6, 2.9 nM; at CDK5, 11.3 nM; against CDK4 it was 0.1 nM.
As for `CN1CCC(Oc2ccc(Nc3ncc(F)c(-c4cc(F)c5nc6n(c5c4)C(C)(C)CC6)n3)nc2)CC1` [Example 10, 5-fluoro-4-(5-fluoro-1,1-dimethyl-2,3-dihydro-1H-benzo[d]pyrrolo[1,2-a]imidazol-7-yl)-N-(5-(1-methylpiperidin-4-yloxy)pyridin-2-yl)pyrimidin-2-amine], the IC50 at CDK2 (read-out: CDK2 IC50) turned out to be 64.1 nM; against CDK6, 2.46 nM; against CDK5, 136 nM; at CDK4, 0.26 nM.
In the same order, the values of `CC1(C)CCc2nc3c(F)cc(-c4nc(Nc5ccc(OC6CCN(CCO)CC6)cn5)ncc4F)cc3n21` [Example 14, 2-(4-(6-(5-fluoro-4-(5-fluoro-1,1-dimethyl-2,3-dihydro-1H-benzo[d]pyrrolo[1,2-a]imidazol-7-yl)pyrimidin-2-ylamino)pyridin-3-yloxy)piperidin-1-yl)ethanol] are 70.3 nM, 2.72 nM, 213 nM and 0.25 nM.
Regarding `CN(C)[C@H]1CCN(c2ccc(Nc3ncc(F)c(-c4cc(F)c5nc6n(c5c4)C(C)(C)CC6)n3)nc2)C1` [Example 7, (S)—N-(5-(3-(dimethylamino)pyrrolidin-1-yl)pyridin-2-yl)-5-fluoro-4-(5-fluoro-1,1-dimethyl-2,3-dihydro-1H-benzo[d]pyrrolo[1,2-a]imidazol-7-yl)pyrimidin-2-amine], the 50% inhibitory concentration (IC50) against CDK2 came to 16.1 nM; at CDK2 (read-out: CDK2 IC50) it was 65.5 nM; at CDK6, 3.96 nM; on CDK5 it was 50.6 nM; against CDK4, 0.18 nM.
As to `CCN1CCC(c2ccc(Nc3ncc(F)c(-c4cc(F)c5nc6n(c5c4)C(C)(C)CC6)n3)nc2)CC1` [Example 3, N-(5-(1-ethylpiperidin-4-yl)pyridin-2-yl)-5-fluoro-4-(5-fluoro-1,1-dimethyl-2,3-dihydro-1H-benzo[d]pyrrolo[1,2-a]imidazol-7-yl)pyrimidin-2-amine, reference compound], the IC50 is 114 nM and 91 nM at CDK2 (read-out: CDK2 IC50); 1.93 nM against CDK6; 38.3 nM against CDK5; 0.08 nM against CDK4.
With `CN(C)[C@H]1CCN(C(=O)c2ccc(Nc3ncc(F)c(-c4cc(F)c5nc6n(c5c4)C(C)(C)CC6)n3)nc2)C1` [Example 6, (S)-(3-(dimethylamino)pyrrolidin-1-yl)(6-(5-fluoro-4-(5-fluoro-1,1-dimethyl-2,3-dihydro-1H-benzo[d]pyrrolo[1,2-a]imidazol-7-yl)pyrimidin-2-ylamino)pyridin-3-yl)methanone], the IC50 was found to be 5.62 nM at CDK2; 20.4 nM on CDK2 (read-out: CDK2 IC50); 1.19 nM on CDK6; 19.1 nM at CDK5; 0.2 nM on CDK4.
